What was measured:
Assay type in all cases: in vivo
[1] = system: morningglory (Ipomoea spp.); assay: Test A preemergence; details: Preemergence, 1000 g ai/ha; 0 is no effect, 100 is complete control
Procedure, shortened: (§1)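 Compounds were formulated in a non-phytotoxic solvent mixture with surfactant and applied as a preemergence directed soil spray after seeding, or sprayed postemergence over plants 2 to 10 cm tall at the one- to two-leaf stage. Evaluation after about 10 d compared treated with untreated controls, using a scale from 0 (no effect) to 100 (complete control).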

[2] = system: wheat (Triticum aestivum); assay: Test A preemergence; details: Preemergence, 1000 g ai/ha; 0 is no effect, 100 is complete control
Procedure, shortened: as §1

[3] = system: velvetleaf (Abutilon theophrasti); assay: Test A preemergence; details: Preemergence, 1000 g ai/ha; 0 is no effect, 100 is complete control
Procedure, shortened: as §1

[4] = system: giant foxtail (Setaria faberii); assay: Test A preemergence; details: Preemergence; for Foxtail, Giant plant response rating (0 to 100 scale): 1000 g ai/ha, 0 is no effect, 100 is complete control
Procedure, shortened: as §1

[5] = system: crabgrass, large (Digitaria sanguinalis); assay: Test A preemergence; details: Preemergence, 1000 g ai/ha; 0 is no effect, 100 is complete control
Procedure, shortened: as §1

[6] = system: barnyardgrass (Echinochloa crus-galli); assay: Test A preemergence; details: Preemergence; for Barnyardgrass plant response rating (0 to 100 scale): 1000 g ai/ha, 0 is no effect, 100 is complete control
Procedure, shortened: as §1

[7] = system: pigweed (Amaranthus retroflexus); assay: Test A preemergence; details: Preemergence; for Pigweed plant response rating (0 to 100 scale): 1000 g ai/ha, 0 is no effect, 100 is complete control
corn (Zea mays) [8] = assay: Test A preemergence; details: Preemergence, 1000 g ai/ha; 0 is no effect, 100 is complete control
Procedure, shortened: as §1

[9] = system: morningglory (Ipomoea spp.); assay: Test A postemergence; details: 1000 g ai/ha, postemergence; 0 to 100 scale, 0 no effect, 100 complete control
Procedure, shortened: as §1

[10] = system: wheat (Triticum aestivum); assay: Test A postemergence
Procedure, shortened: as §1

[11] = system: velvetleaf (Abutilon theophrasti); assay: Test A postemergence; details: 1000 g ai/ha, postemergence; 0 to 100 scale, 0 no effect, 100 complete control
Procedure, shortened: as §1

[12] = system: giant foxtail (Setaria faberii); assay: Test A postemergence
Procedure, shortened: as §1

[13] = system: crabgrass, large (Digitaria sanguinalis); assay: Test A postemergence; details: 1000 g ai/ha, postemergence; 0 to 100 scale, 0 no effect, 100 complete control
Procedure, shortened: as §1

[14] = system: barnyardgrass (Echinochloa crus-galli); assay: Test A postemergence
Procedure, shortened: as §1

[15] = system: pigweed (Amaranthus retroflexus); assay: Test A postemergence
Procedure, shortened: as §1

corn (Zea mays) [16] = assay: Test A postemergence
Procedure, shortened: as §1

[17] = system: sedge, umbrella (small-flower umbrella sedge, Cyperus difformis); assay: Test C flooded paddy test; details: Flood, 0 is no effect, 100 is complete control
Procedure, shortened: (§2)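 Plants grown to the 2-leaf stage in pots flooded to 3 cm above soil; compounds applied directly into the paddy water, depth held throughout. After 13 to 15 d in greenhouse, injury visually rated against untreated controls on a 0–100 scale (0 no effect, 100 complete control).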

[18] = system: ducksalad (Heteranthera limosa); assay: Test C flooded paddy test; details: Flood, 0 is no effect, 100 is complete control
Procedure, shortened: as §2

rice (Oryza sativa) = assay: Test C flooded paddy test; details: Flood, 0 is no effect, 100 is complete control
Procedure, shortened: as §2

[19] = system: barnyardgrass (Echinochloa crus-galli); assay: Test C flooded paddy test; details: Flood, 0 is no effect, 100 is complete control
Procedure, shortened: as §2

[20] = system: sedge, umbrella (small-flower umbrella sedge, Cyperus difformis); assay: Test B flooded paddy test; details: Flood, 250 g ai/ha; 0 to 100 scale where 0 is no effect and 100 is complete control; 13 to 15 d
Procedure, shortened: (§3)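 Evaluation by eye, against controls, occurred 13–15 d post-treatment in a greenhouse, using a 0 (no effect) to 100 (complete control) scale. Application was into the paddy water, 3 cm deep over the soil, on 2-leaf plants.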

[21] = system: ducksalad (Heteranthera limosa); assay: Test B flooded paddy test; details: Flood, 250 g ai/ha; 0 to 100 scale where 0 is no effect and 100 is complete control; 13 to 15 d
Procedure, shortened: as §3

rice (Oryra sativa) = assay: Test B flooded paddy test; details: Flood, 250 g ai/ha; 0 to 100 scale where 0 is no effect and 100 is complete control; 13 to 15 d
Procedure, shortened: as §3

[22] = system: barnyardgrass (Echinochloa crus-galli); assay: Test B flooded paddy test; details: Flood, 250 g ai/ha; 0 to 100 scale where 0 is no effect and 100 is complete control; 13 to 15 d
Procedure, shortened: as §3

Kochia (Kochia scoparia) [23] = assay: Test A preemergence; details: Preemergence
Procedure, shortened: as §1

[24] = system: ragweed (common ragweed, Ambrosia elatior); assay: Test A preemergence; details: Preemergence
Procedure, shortened: as §1

[25] = system: ryegrass, Italian (Italian ryegrass, Lolium multiflorum); assay: Test A preemergence; details: Preemergence
Procedure, shortened: as §1

[26] = system: blackgrass (Alopecurus myosuroides); assay: Test A postemergence
Procedure, shortened: as §1

Kochia (Kochia scoparia) [27] = assay: Test A postemergence
Procedure, shortened: as §1

[28] = system: ragweed (common ragweed, Ambrosia elatior); assay: Test A postemergence
Procedure, shortened: as §1

[29] = system: ryegrass, Italian (Italian ryegrass, Lolium multiflorum); assay: Test A postemergence
Procedure, shortened: as §1

[30] = system: Galium (catchweed bedstraw, Galium aparine); assay: Test A postemergence
Procedure, shortened: as §1

[31] = 1000 g ai/ha, postemergence, 0 to 100 scale, 0 no effect, 100 complete control
[32] = 125 g ai/ha, visual injury after approximately 10 d, 0 to 100 scale where 0 is no effect and 100 is complete control
[33] = 500 g ai/ha, visual injury approx. 10 d
[34] = 125 g ai/ha, postemergence, visual rating after approx. 10 d, 0 to 100 scale (0 no effect, 100 complete control)
[35] = Postemergence, 500 g ai/ha, 0 to 100 scale where 0 is no effect and 100 is complete control

## Nc1c(NC(=O)C2C(=O)NCC2c2ccc(F)c(F)c2)cccc1[N+](=O)[O-] (racemic) [Compound 357]
[1]
  Morningglory plant response rating (0 to 100 scale): 0
[2]
  Wheat plant response rating (0 to 100 scale): 0
[3]
  Velvetleaf plant response rating (0 to 100 scale): 0
[4]
  Foxtail, Giant plant response rating (0 to 100 scale): 0
[5]
  Crabgrass, Large plant response rating (0 to 100 scale): 0
[6]
  Barnyardgrass plant response rating (0 to 100 scale): 0
[7]
  Pigweed plant response rating (0 to 100 scale): 0
Corn (Zea mays) [8]
  Corn plant response rating (0 to 100 scale): 0
[9]
  Plant response rating, Morningglory: 0
[10]; [31]
  Plant response rating, Wheat: 0
[11]
  Plant response rating, Velvetleaf: 0
[12]; [31]
  Plant response rating, Foxtail, Giant: 0
[13]
  Plant response rating, Crabgrass, Large: 0
[14]; [31]
  Plant response rating, Barnyardgrass: 0
[15]; [31]
  Plant response rating, Pigweed: 0
Corn (Zea mays) [16]; [31]
  Plant response rating, Corn: 0

## Cc1cccc(NC(=O)C2C(=O)NCC2c2ccc(F)c(F)c2)c1N (racemic) [Compound 355]
[1]
  Morningglory plant response rating (0 to 100 scale): 0
[2]
  Wheat plant response rating (0 to 100 scale): 0
[3]
  Velvetleaf plant response rating (0 to 100 scale): 0
[4]
  Foxtail, Giant plant response rating (0 to 100 scale): 0
[5]
  Crabgrass, Large plant response rating (0 to 100 scale): 0
[6]
  Barnyardgrass plant response rating (0 to 100 scale): 0
[7]
  Pigweed plant response rating (0 to 100 scale): 0
Corn (Zea mays) [8]
  Corn plant response rating (0 to 100 scale): 0
[9]
  Plant response rating, Morningglory: 0
[10]; [31]
  Plant response rating, Wheat: 0
[11]
  Plant response rating, Velvetleaf: 0
[12]; [31]
  Plant response rating, Foxtail, Giant: 0
[13]
  Plant response rating, Crabgrass, Large: 0
[14]; [31]
  Plant response rating, Barnyardgrass: 0
[15]; [31]
  Plant response rating, Pigweed: 0
Corn (Zea mays) [16]; [31]
  Plant response rating, Corn: 0

## C=CCN1CC(c2cccc(C(F)(F)F)c2)C(C(=O)Nc2cccc(F)c2F)C1=O (stereo not drawn) [Compound 606]
[17]; 31 g ai/ha
  Plant response rating (scale of 0 to 100), Sedge, Umbrella: 0
[17]; 62 g ai/ha
  Plant response rating (scale of 0 to 100), Sedge, Umbrella: 0
[17]; 125 g ai/ha
  Plant response rating (scale of 0 to 100), Sedge, Umbrella: 0
[17]; 250 g ai/ha
  Plant response rating (scale of 0 to 100), Sedge, Umbrella: 0
[18]; 31 g ai/ha
  Plant response rating (scale of 0 to 100), Ducksalad: 0
[18]; 62 g ai/ha
  Plant response rating (scale of 0 to 100), Ducksalad: 0
[18]; 125 g ai/ha
  Plant response rating (scale of 0 to 100), Ducksalad: 50
[18]; 250 g ai/ha
  Plant response rating (scale of 0 to 100), Ducksalad: 70
Rice (Oryza sativa); 31 g ai/ha
  Plant response rating (scale of 0 to 100), Rice: 0
Rice (Oryza sativa); 62 g ai/ha
  Plant response rating (scale of 0 to 100), Rice: 0
Rice (Oryza sativa); 125 g ai/ha
  Plant response rating (scale of 0 to 100), Rice: 0
Rice (Oryza sativa); 250 g ai/ha
  Plant response rating (scale of 0 to 100), Rice: 0
[19]; 31 g ai/ha
  Plant response rating (scale of 0 to 100), Barnyardgrass: 0
[19]; 62 g ai/ha
  Plant response rating (scale of 0 to 100), Barnyardgrass: 0
[19]; 125 g ai/ha
  Plant response rating (scale of 0 to 100), Barnyardgrass: 20
[19]; 250 g ai/ha
  Plant response rating (scale of 0 to 100), Barnyardgrass: 40
[20]
  Plant response rating, Sedge, Umbrella: 40
[21]
  Plant response rating, Ducksalad: 0
Rice (Oryra sativa)
  Plant response rating, Rice: 0
[22]
  Plant response rating, Barnyardgrass: 50
[4]; [32]
  Plant response rating, Foxtail, Giant: 80
[4]; [33]
  Foxtail, Giant plant response rating (0 to 100 scale, 0 is no effect, 100 is complete control): 90
Kochia (Kochia scoparia) [23]; [32]
  Plant response rating, Kochia: 0
Kochia (Kochia scoparia) [23]; [33]
  Kochia plant response rating (0 to 100 scale, 0 is no effect, 100 is complete control): 0
[6]; [32]
  Plant response rating, Barnyardgrass: 50
[6]; [33]
  Barnyardgrass plant response rating (0 to 100 scale, 0 is no effect, 100 is complete control): 80
[24]; [32]
  Plant response rating, Ragweed: 0
[24]; [33]
  Ragweed plant response rating (0 to 100 scale, 0 is no effect, 100 is complete control): 0
[25]; [32]
  Plant response rating, Ryegrass, Italian: 0
[25]; [33]
  Ryegrass, Italian plant response rating (0 to 100 scale, 0 is no effect, 100 is complete control): 0
[7]; [32]
  Plant response rating, Pigweed: 0
[7]; [33]
  Pigweed plant response rating (0 to 100 scale, 0 is no effect, 100 is complete control): 0
[10]; [34]
  Plant response rating, Wheat: 0
[10]; [35]
  Plant response rating, Wheat: 0
[12]; [34]
  Plant response rating, Foxtail, Giant: 70
[12]; [35]
  Plant response rating, Foxtail, Giant: 90
[26]; [34]
  Plant response rating, Blackgrass: 0
[26]; [35]
  Plant response rating, Blackgrass: 40
Kochia (Kochia scoparia) [27]; [34]
  Plant response rating, Kochia: 0
Kochia (Kochia scoparia) [27]; [35]
  Plant response rating, Kochia: 0
[14]; [34]
  Plant response rating, Barnyardgrass: 50
[14]; [35]
  Plant response rating, Barnyardgrass: 70
[28]; [34]
  Plant response rating, Ragweed: 0
[28]; [35]
  Plant response rating, Ragweed: 0
[29]; [34]
  Plant response rating, Ryegrass, Italian: 0
[29]; [35]
  Plant response rating, Ryegrass, Italian: 0
[30]; [34]
  Plant response rating, Galium: 60
[30]; [35]
  Plant response rating, Galium: 70
[15]; [34]
  Plant response rating, Pigweed: 50
[15]; [35]
  Plant response rating, Pigweed: 70
Corn (Zea mays) [16]; [34]
  Plant response rating, Corn: 0
Corn (Zea mays) [16]; [35]
  Plant response rating, Corn: 0
